Patent US20180085341A1, “METHODS FOR TREATING CANCER” (BOSTON BIOMEDICAL, INC., priority 2015, published 2018)

Columns and labels:
Stat3 pathway = details: cellular; according to U.S. Pat. No. 8,877,803; cited from earlier work
[1] = open label phase Ib dose-escalation study, safety, tolerability and RP2D; format: in vivo, human; details: in combination with weekly paclitaxel
Experimental: In the open label phase lb dose-escalation study, the safety, tolerability and recommended phase 2 dose (RP2D) of 2-acetylnaphtho[2,3-b]furan-4,9-dione in combination with paclitaxel were assessed in adult patients with advanced solid tumors.
The effects of 2-acetylnaphtho[2,3-b]furan-4,9-dione in combination with paclitaxel were clinically evaluated. […] Phase II accrual to disease-specific cohorts included patients with advanced, heavily pre-treated metastatic non-small cell lung cancer (NSCLC).

[2] = test system: cancer patients (CRC patients); experiment: clinical trials, survival by Stat3/pStat3 expression level; format: in vivo, human; details: after treatment in clinical trials; at least in CRC patients
Text: Thus, the higher the level of pStat3 found in a cancer patient before treatment, at least in CRC patients, the higher the overall survival (OS) upon administering a treatment comprising a compound of formula (I).

p-Stat3 and β-catenin = experiment: cancer stemness biomarkers in human colon cancer xenograft tumor (SW480), immunofluorescence; format: in vivo; details: SW480 xenograft in nude mice, e.g. 50 mg/kg BID oral gavage, tumors harvested 24 hours after first dosing, FIG. 5
Experimental: The effects of 2-acetylnaphtho[2,3-b]furan-4,9-dione, a compound of formula (I), on cancer stem cell markers was examined in cancer xenograft models with and without paclitaxel.
Human cancer cells were subcutaneously implanted into the right flank of 5-7 weeks old female athymic nude mice. When tumor size reached 200 mm^3, animals were treated with 2-acetylnaphtho[2,3-b]furan-4,9-dione, for example, at 50 mg/kg (BID) by oral gavage (n=3/group), paclitaxel, or a combination of 2-acetylnaphtho[2,3-b]furan-4,9-dione and paclitaxel. Tumors were harvested at 24 hours after first dosing.
The harvested tissues were fixed in 3.7% neutral buffered formaldehyde at 4° C. for overnight. The paraffin was embedded, cut to about 5 microns, and affixed onto positively-charged slides. After being baked and de-paraffinized, the slides with tumor or control tissues were incubated in 10 mM sodium citrate (pH 6.0) for 10 minutes. After antigen retrieval, slides were probed with primary antibodies P-STAT3 (rabbit, Cell Signaling, 1:100), β-Catenine (mouse, Santa Cruz, 1:400) at 4° C. overnight, and then Alexa Fluor fluorescent dyes-conjugated secondary antibodies (1:500, Invitrogen). After mounting, the slides with ProLong mounting medium with DAPI (Invitrogen) were examined under a Zeiss fluorescence microscope with 20× objective, and analyzed with Zen software.

[3] = test system: human lung cancer xenograft (A549); experiment: human lung cancer xenograft (A549) model, metabolic tumor volume; format: in vivo, mice; details: 2-acetylnaphtho[2,3-b]furan-4,9-dione 100 mg/kg daily oral, paclitaxel 10.0 mg/kg q3d iv, relative to control, FIG. 7
Experimental: The effects of 2-acetylnaphtho[2,3-b]furan-4,9-dione was examined in a human lung cancer xenograft (A549) model. Human lung cancer cells were implanted in mice and the resulting tumors were allowed to grow to a pre-determined size. Mice were treated orally with vehicle, 2-acetylnaphtho[2,3-b]furan-4,9-dione (100 mg/kg, daily, oral), paclitaxel (10.0 mg/kg, q3d, iv), or the combination of 2-acetylnaphtho[2,3-b]furan-4,9-dione (100 mg/kg, daily, oral) and paclitaxel (10.0 mg/kg, q3d, iv). The tumor sizes were monitored.

pStat3 and β-catenin = experiment: cancer stemness biomarkers in pancreatic adenocarcinoma cancer stem cells (Panc-1) in vitro; format: cell-based, human; details: Panc-1 cancer stem cells, FIG. 6
[4] = test system: patients with advanced, previously treated pancreatic adenocarcinoma; details: weekly paclitaxel alone; Oettle et al, Anticancer Drugs 2000; cited from earlier work

Row | SMILES | IC50 (Stat3 pathway) [nM] | recommended phase 2 dose of 2-acetylnaphtho[2,3-b]furan-4,9-dione [1] [mg BID] | overall survival of patients with higher expression levels of Stat3 [2] | expression of p-Stat3 and β-catenin stem cell markers (p-Stat3 and β-catenin) | metabolic tumor volume [3] | staining for stem cell markers (pStat3, β-catenin) (pStat3 and β-catenin) | median overall survival (mOS) [4]
1 | CC(=O)c1cc2c(o1)C(=O)c1ccccc1C2=O [2-acetylnaphtho[2,3-b]furan-4,9-dione] | ~250 | 480 | prolonged overall survival | dramatically reduced expression | reduced metabolic tumor volume relative to control | – | –
2 | CC(=O)O[C@H]1C(=O)[C@@]2(C)[C@H]([C@H](OC(=O)c3ccccc3)[C@]3(O)C[C@H](OC(=O)[C@H](O)[C@@H](NC(=O)c4ccccc4)c4ccccc4)C(C)=C1C3(C)C)[C@]1(OC(C)=O)CO[C@@H]1C[C@@H]2O [paclitaxel] | – | – | – | – | reduced metabolic tumor volume relative to control | enhanced staining | about 17.5 weeks
